Laboratory results reported in publication PMC9658586, “1,4-Naphthoquinone Motif in the Synthesis of New Thiopyrano[2,3-d]thiazoles as Potential Biologically Active Compounds” (Molecules, 2022).
Where two headings read alike, the source gives them in different places.

Columns and labels:
[1] = test system: human T-leukemia Jurkat cells; experiment: MTT cell viability assay, Jurkat; format: cell-based; conditions: 72 h
Experimental: (§1) The MTT cell viability assay was performed 72 h after cells treatment with various concentrations of studied compounds and doxorubicin, a reference drug. […] It is known that ABCB1 (P-glycoprotein), MRP1/ABCC1 (multidrug resistance protein 1), and BCRP/BCG2 (breast cancer resistance protein) have been reported to be key players in resistance to chemotherapy. […] The p53 has diverse mutations in almost all human tumors, stimulating their hyper-proliferation, invasion/metastasis, and thus, influencing the potency of various chemotherapeutics (i.e., platins and anti-metabolites).
(§2) Human colon carcinoma HCT116 cells, human breast adenocarcinoma cells of MCF-7 line, human T-leukemia Jurkat cells, human chronic myelogenous leukemia K562 cells, and human keratinocytes of HaCaT line were from the Cell Collection of R.E. Kavetsky Institute of Experimental Pathology, Oncology and Radiobiology (Kyiv, Ukraine). […]
(§3) MTT assay was used to examine the viability of tumor and pseudo-normal cells after their treatment with studied thiopyrano[2,3-d]thiazole derivatives and doxorubicin (Actavis S.R.L., Bucharest, Romania). […] An absorbance Reader BioTek ELx800 (BioTek Instruments, Inc., Winooski, VT, USA) was used to measure the reaction product.

KB3-1 cells = experiment: Fluorescence microscopy of cells, Hoechst-33342 staining; format: cell-based, human; conditions: 1 µM, 24 h
Experimental: One can also see giant KB3-1 cells with abnormal nuclei and looser chromatin (Figure 7B). The mitotic catastrophe may occur during or after aberrant mitosis. Mitotic catastrophe has been reported as a special example of apoptosis affecting mitochondrial membrane permeabilization and caspase activation. […] Thus, compound 3.6 induced pro-apoptotic cytomorphological changes in treated KB3-1 cells.
The KB3-1 cells were seeded in 24-well plates at 5 × 10^5/mL and then treated for an additional 24 h with compound […] (1 μM) and doxorubicin (1 μM). Cells were stained with 0.2–0.5 µg/mL of Hoechst-33342 and incubated for 20–30 min before the cell examination. A Zeiss fluorescent microscope (Carl Zeiss, Jena, Germany), AxioImager A1 camera (at 400× magnification), and AxioVision image analysis software Release 4.6.3.0 for Carl Zeis microscopy (Imaging Associates Ltd., Cork, Ireland, UK) were used for cells examination. All microphotographs were additionally analyzed using ImagePro7 software (Media Cybernetics, Rockville, MD, USA).

[2] = test system: Human leukemia monocytic THP-1 cells; experiment: MTT cell viability assay, THP-1; format: cell-based; conditions: 72 h
Experimental: as §1, §2, §3

[3] = test system: isolated normal human peripheral blood lymphocytes; experiment: MTT cell viability assay, isolated lymphocytes; format: cell-based; conditions: MTT, 72 h, normal human peripheral blood lymphocytes, read-out: IC50, Isolated lymphocytes
Experimental: We continued the cytotoxicity study of synthesized derivatives 3.1–3.6 toward tumor and pseudo-normal cells in vitro. The MTT cell viability assay was performed 72 h after cells treatment with various concentrations of studied compounds and doxorubicin, a reference drug. […] The THP-1 cells, monocytes isolated from peripheral blood from an acute monocytic leukemia patient, were also sensitive to the 3.6 treatment. […] The 3.6 inhibited the viability of epidermoid carcinoma (KB3-1 and its ABCB1-overexpressing subline KBC-1) and colon carcinoma (HCT116wt and its p53 knockdown subline HCT116 p53-/-) cells. It is known that ABCB1 (P-glycoprotein), MRP1/ABCC1 (multidrug resistance protein 1), and BCRP/BCG2 (breast cancer resistance protein) have been reported to be key players in resistance to chemotherapy. […] Thus, the p53 status of colon carcinoma cells influenced the anti-tumor effects of the studied 3,5,10,11-tetrahydro-2H-benzo[6,7]thiochromeno[2,3-d][1, 3]thiazole-2,5,10-trione. The p53 has diverse mutations in almost all human tumors, stimulating their hyper-proliferation, invasion/metastasis, and thus, influencing the potency of various chemotherapeutics (i.e., platins and anti-metabolites). […] Based on our findings, one can assume a p53-dependent mode of action for 3.6 toward colon cancer cells.
(§4) MTT assay was used to examine the viability of tumor and pseudo-normal cells after their treatment with studied thiopyrano[2,3-d]thiazole derivatives and doxorubicin (Actavis S.R.L., Bucharest, Romania). Cells were seeded in 96-well plates at a density of 3–5 × 103. After 24 h, cells were treated with compound […], 1,4-NQ (0.1–100 µM), and doxorubicin (0.1–100 µM). After incubation for 72 h, MTT reagent (Sigma-Aldrich, St. Louis, MO, USA) was added to each well, according to the Sigma-Aldrich protocol. An absorbance Reader BioTek ELx800 (BioTek Instruments, Inc., Winooski, VT, USA) was used to measure the reaction product.
The study protocol with human lymphocytes isolated from healthy adult peripheral blood was approved by BioEthics Committee of the Institute of Cell Biology of National Academy of Sciences of Ukraine (protocol No 2 from 27 January 2019), and with written consent of donor.

[4] = test system: human breast adenocarcinoma cells of MCF-7 line; experiment: MTT cell viability assay, MCF-7; format: cell-based; conditions: Homo sapiens, MCF7, 72 h
Experimental: as §1
(§5) Human colon carcinoma HCT116 cells, human breast adenocarcinoma cells of MCF-7 line, human T-leukemia Jurkat cells, human chronic myelogenous leukemia K562 cells, and human keratinocytes of HaCaT line were from the Cell Collection of R.E. Kavetsky Institute of Experimental Pathology, Oncology and Radiobiology (Kyiv, Ukraine). Murine macrophages of J774.2 line were a generous gift from Professor Sir John Vane (William Harvey Research Institute, London, UK) via Professor Janusz Marcinkiewicz (Jagiellonian University Medical College, Krakow, Poland). Human colon carcinoma HCT116 p53-/- cells with knockdown of P53 gene, as well as human epidermoid cervix carcinoma KB3-1 cells and its ABCB1-overexpressing subline KBC-1, were kindly provided by Professor W. Berger (Institute of Cancer Research, Medical University of Vienna, Austria). […] Human leukemia monocytic THP-1 cells were kindly provided by Professor M. Herrmann (Department of Internal Medicine, Institute for Clinical Immunology and Rheumatology, University of Erlangen-Nuremberg, Germany). Cells were cultured in DMEM or RPMI-1640 medium supplemented with 10% fetal bovine serum (all were purchased from Biowest, Nuaille, France) at 37 °C in a humidified atmosphere containing 5% CO2.
as §4

MDA-MB-435/Melanoma = experiment: NCI single-dose screen, MDA-MB-435; format: cell-based, human; conditions: 10 μM, 48 h
Experimental: Considering the results of previous studies of fused thiazolidinones and their analogs, a series of thiopyrano[2,3-d]thiazoles with naphthoquinone fragments in the structure were studied for their anticancer activity. Thus, synthesized thiopyranothiazole derivatives 3.5 and 3.6 were selected by the National Cancer Institute (NCI), U.S., for their anticancer activity at 10 μM concentration toward a panel of sixty cancer cell lines representing nine different types (leukemia, melanoma, lung, colon, CNS, ovarian, renal, prostate, and breast cancers) (Figures S13–S14). Selection for screening based on new derivatives’ ability to add diversity to the NCI small molecules collection and anticancer assays were performed according to the NCI guidelines and protocols previously described. The compounds were added at the mentioned concentration, and the cell cultures were incubated for 48 h. The results for each compound were reported as the growth percent (GP%) of treated cells compared with untreated control cells.
Anticancer in vitro assay was performed on the human tumor cell lines panel derived from nine neoplastic diseases by the protocol of the Drug Evaluation Branch, National Cancer Institute, Bethesda, MD, USA [44, 45, 46]. […] GP% was spectrophotometrically evaluated vs. controls not treated with test agents.

[5] = test system: Human colon carcinoma HCT116 p53-/- cells; experiment: MTT cell viability assay, HCT116 p53-/-; format: cell-based; conditions: for IC50: Homo sapiens, read-out: IC50, HCT116 p53-/-
Experimental: as §1, §5, §4

Row | IC50 ([5]; HCT-116, MTT, 72 h) | Structure (SMILES) | IC50 [1] | cytomorphological alterations (KB3-1 cells) | IC50 [2] | IC50 ([3]; Lymphocyte) | IC50 [4] | Most Sensitive Cell Line Growth, % (MDA-MB-435/Melanoma) (MDA-MB-435/Melanoma) | cytotoxic action on p53-deficient colon carcinoma cells relative to HCT116wt ([5]; HCT116 p53-/- vs HCT116wt) | IC50 ([3]; Homo sapiens, Lymphocyte) | IC50 ([3]; listed as Dox) | IC50 ([5]; HCT-116, 72 h)
1 | 12300 nM | O=C1C2=C(C(=O)c3ccccc31)C(CCc1ccccc1)c1sc(=O)[nH]c1S2 (stereo not shown) [Compound 3.6, 11-Phenethyl-3,11-dihydro-2H-benzo[6,7]thiochromeno[2,3-d]thiazole-2,5,10-trione] | 760 nM | shrunk, with condensed chromatin and membrane blabbing | 7940 nM | 58700 nM | 8940 nM | 52.87% | two times weaker | – | – | –
2 | – | COc1cccc2c1C(=O)c1c(O)c3c(c(O)c1C2=O)C[C@@](O)(C(=O)CO)C[C@@H]3O[C@H]1C[C@H](N)[C@H](O)[C@H](C)O1 [Doxorubicin, doxorubicin, reference compound] | 670 nM | chromatin condensation and membrane blabbing | 14000 nM | – | 630 nM | −82.60% | – | 800 to 1000 nM | 1000 nM | 580 nM
